In brackets after ≈: the same amount, converted by molar mass. Like-named read-outs stand apart in the source and are kept apart here.
Experiments:
[1] = molecular target: T1, CIB1 and αIIb interaction (GST-CIB1 : F-αIIb peptide) (Homo sapiens, UniProt Q99828); experiment: FP assay, 384-well format (screen); assay type: binding; details: 384-well FP assay
T1 construct: made in house; host or cells: BL-21 plus RIL cells (E. coli)
T1 sequence (Q99828 1-191): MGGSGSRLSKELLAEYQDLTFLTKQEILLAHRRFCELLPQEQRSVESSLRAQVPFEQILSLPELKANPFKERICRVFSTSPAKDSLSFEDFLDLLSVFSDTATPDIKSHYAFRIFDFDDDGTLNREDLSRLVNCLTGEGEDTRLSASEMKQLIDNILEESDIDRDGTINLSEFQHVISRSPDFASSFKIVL

[2] = molecular target: T2, CIB1 and αIIb interaction (CIB1-GST : F-αIIb peptide) (Homo sapiens, UniProt Q99828); experiment: FP assay, 1536-well qHTS format (primary and confirmatory screen); assay type: binding; details: for Confirm? (confirmatory screen): YES/NO
T2 construct: made in house; host or cells: BL-21 plus RIL cells (E. coli)
T2 sequence (Q99828 1-191): T1 sequence (Q99828 1-191)

[3] = tested on: washed human platelets; experiment: Human platelet aggregation assay (thrombin-induced); assay type: cell-based; details: for inhibition at 10 µM: Homo sapiens, Platelet, single concentration of 10 μM (n = 3), thrombin; for Thrombin Assay 10 µM (%): platelet aggregation inhibition at 10 µM
From the text: A classical challenge in target-based drug discovery is moving from biochemical to cellular assay and the essential step of determining if the compounds of interest can perform in a cellular context. After characterization of the compounds in a series of biochemical assay formats, our next step was to assess their activity in a cellular environment. Our previous studies have shown that the interaction of the cytoplasmic domain of integrin αIIbβ3, a key regulator of platelet aggregation, with CIB1, is involved in downstream signaling in platelet activation and aggregation. We sought to determine whether our candidate compounds were inhibiting this interaction by evaluating them for platelet function in a human platelet aggregation assay. We prepared platelet-rich plasma (PRP) and washed the platelets as previously described[44] and then performed a platelet aggregation assay using the washed platelet suspensions (2 × 10^8/platelets/mL) followed by the recording of aggregation traces (see Materials and Methods Section). To induce platelet aggregation, 0.03 U/mL of thrombin, a physiological agonist of platelet activation, was used.
Figure 6 Effect of compounds on human platelet activation. Representative platelet aggregation tracings of washed human platelet suspensions pretreated for 30 min at 37 °C with vehicle (DMSO) or compounds at indicated concentrations followed by activation with thrombin (0.03–0.1 U/mL). Panel (A): NCGC00071855. Panel (B–D): NCGC00351170. Panel (E): CD62P exposure was in the presence of NCGC00351170. Data represents mean ± SEM, n = 4 individual experiments; ns = non significant *P < 0.05, ***P < 0.001, ****P < 0.0001.
Whole blood was drawn by venipuncture from healthy adult volunteers (of both gender and race) with informed consent. Approval was obtained from the institutional review boards of Thomas Jefferson University, according to the Declaration of Helsinki. Blood was collected in acidified citrate dextrose as an anticoagulant. Platelet-rich plasma (PRP) and washed platelets were prepared, as previously described.[44] Platelet aggregation was performed using washed platelet suspensions containing 2 × 10^8 platelets/mL using a Chrono-Log Lumi-Aggregometer (Chrono-Log), as described previously.[11] Aggregation traces were recorded by using Aggrolink software (Chrono-Log). Thrombin-induced P-selectin (CD62P) exposure was performed using Accuri C6 flowcytometer (BD Bioscience) as described previously.[11]
Figure S9: Effect of compounds on human platelet activation. Representative platelet aggregation
tracings of washed human platelet suspensions treated with vehicle (DMSO) or indicated
compounds at 10 μM for 30 minutes at 37 °C followed by activation with thrombin (0.03U/mL).

[4] = In vitro ADME: solubility; assay type: physicochemical
[5] = molecular target: T3, GST-CIB1 : F-scrambled peptide (Homo sapiens, UniProt Q99828); experiment: FP scrambled-peptide counter screen, 1536-well format; assay type: binding; details: for Curve Class (counterscreen): negative sign = inhibitory curve; for Efficacy (%) (counterscreen) / Curve Class (counterscreen) / IC50: counterscreen; for IC50: read-out: IC50 [μM] (counterscreen)
T3 construct: made in house; host or cells: BL-21 plus RIL cells (E. coli)
T3 sequence (Q99828 1-191): T1 sequence (Q99828 1-191)

[6] = In vitro ADME: PAMPA permeability
[7] = Table 1, read-out: FP assay IC50
[8] = qHTS primary screen hits, Table S2, negative = inhibition
[9] = qHTS primary screen hits, Table S2, read-out: IC50
[10] = confirmatory screen, qHTS curve class, negative sign = inhibitory curve
[11] = confirmatory screen, read-out: IC50 [μM] (confirmatory screen)
[12] = qHTS primary screen hits, Table S2, negative sign = inhibitory curve, several classes where COUNT > 1

| IC50 [1, 7] | Efficacy (%) [2, 8] | IC50 [2, 9] | solubility ([4]; read-out: Solubility) | Papp [6] | Compound | inhibition at 10 µM [3] | Thrombin Assay 10 µM (%) [3] | other results |
| --- | --- | --- | --- | --- | --- | --- | --- | --- |
| 7.5 µM | -58% | 26.6 µM | 34 µg/mL (≈ 103 µM) |  | O=C(c1ccc(F)cc1)c1no[n+]([O-])c1C(=O)c1ccc(F)cc1 [NCGC00351162-02] | 97% | 97% | IC50 ([1]; log of IC50 in M (negative values), read-out: FP Assay LOG IC50 (converted)): 7.41 µM |
| 7.26 µM |  |  | > 64 µg/mL | 11 ×10⁻⁶ cm/s | O=C(c1ccc(C(F)(F)F)cc1)c1no[n+]([O-])c1C(=O)c1ccc(C(F)(F)F)cc1 [NCGC00351164-01] | 98% | 98% |  |
|  |  |  |  |  | O=C(c1ccccc1)c1no[n+]([O-])c1C(=O)c1ccccc1 [NCGC00351168-01] |  |  | solubility [4]: > 43 µg/mL; PAMPA [6]: < 1 10-6 cm/s |
| 7.85 µM | -49% | 25.1 µM | 26 µg/mL (≈ 88.4 µM) | 2 ×10⁻⁶ cm/s | O=C(c1ccccc1)c1no[n+]([O-])c1C(=O)c1ccccc1 [NCGC00351168-02] | 97% | 97% | Efficacy (%) (confirmatory screen) ([2]; confirmatory screen): -54%; Confirm? (confirmatory screen) ([2]; confirmatory screen): YES; Curve Class (confirmatory screen) [2, 10]: -2.2; IC50 [2, 11]: 31.6 µM; Curve Class [2, 12]: -1.2; Efficacy (%) (counterscreen) [5]: -34%; Curve Class (counterscreen) ([5]; qHTS curve class): -1.4; IC50 [5]: 25.1 µM |
|  |  |  | 23 µg/mL (≈ 102 µM) | 130 ×10⁻⁶ cm/s | O=C(c1cccs1)c1no[n+]([O-])c1CO [NCGC00354607-01] | 14% | 14% |  |

| Compound | IC50 [1, 7] | Efficacy (%) [2, 8] | IC50 [2, 9] | solubility ([4]; read-out: Solubility) | Papp [6] | inhibition at 10 µM [3] | Thrombin Assay 10 µM (%) [3] | other results |
| --- | --- | --- | --- | --- | --- | --- | --- | --- |
| Cc1ccc(C(=O)c2no[n+]([O-])c2C(=O)c2ccc(C)cc2)cc1.O=C(O)C(F)(F)F [NCGC00351163-01] | 6.68 µM |  |  | 12 µg/mL |  | 96% | 96% | Efficacy (%) (confirmatory screen) ([2]; confirmatory screen): -51%; Confirm? (confirmatory screen) ([2]; confirmatory screen): YES; Curve Class (confirmatory screen) [2, 10]: -1.4; IC50 [2, 11]: 5.6 µM; Efficacy (%) ([2]; qHTS FP screen hits, Table S2, negative = inhibition): -47%; Curve Class ([2]; qHTS FP screen hits, Table S2, one class per curve where COUNT > 1, negative sign = inhibitory curve): -1.2; IC50 ([2]; qHTS FP screen hits, Table S2, read-out: IC50): 11.2 µM; Efficacy (%) (counterscreen) [5]: -36%; Curve Class (counterscreen) ([5]; qHTS curve class): -1.2; IC50 [5]: 4 µM |
| Cc1ccccc1C(=O)c1no[n+]([O-])c1C(=O)c1ccccc1C.O=C(O)C(F)(F)F [NCGC00351166-01] | 4.26 µM | -19% | 31.6 µM | 2 µg/mL | < 1 ×10⁻⁶ cm/s | 77% | 77% | CONFIRMATORY SCREEN Confirm? ([2]; confirmatory screen, YES/NO call): YES; CONFIRMATORY SCREEN Curve Class [2, 10]: -1.4; CONFIRMATORY SCREEN Efficacy (%) ([2]; confirmatory screen, negative = inhibition): -39%; IC50 ([2]; confirmatory screen, read-out: CONFIRMATORY SCREEN IC50): 12.6 µM; Curve Class [2, 12]: -2.4; COUNTERSCREEN Efficacy (%) ([5]; scrambled-peptide counterscreen): -24%; COUNTERSCREEN Confirm? ([5]; scrambled-peptide counterscreen, YES/NO call): YES; COUNTERSCREEN Curve Class ([5]; scrambled-peptide counterscreen, qHTS curve class): 4 |

— PMC11249646, “Small-Molecule Disruptors of the Interaction between Calcium- and Integrin-Binding Protein 1 and Integrin αIIbβ3 as Novel Antiplatelet Agents” (ACS Pharmacology & Translational Science, 2024)
